From patent US9833497B2, “Human originated EGF domain proteins and use of the same” (CHENGDU SOURCEBIO LIMITED-LIABILITY COMPANY, priority 2013, dated 2017)

What was measured:
Type in all cases: cell-based
E. coli DH5α = experiment: Antibacterial activity: MIC and growth curve against E. coli DH5α in 96-well plate; conditions: minimal inhibitory concentration against E. coli DH5α; 96-well plate, 5×10^5 CFU/mL, 37° C., judged after 8 h
Method in brief: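 MIC taken as lowest protein level with no bacterial growth, tracked by A600 every 30 min during 37 °C, 175 rpm culture. Two-fold protein series 50-12.5 μg/mL final, triplicate wells, against 5×10^5 CFU/mL of LB-washed mid-log cells.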

E. coli BL21 = experiment: MIC against Gram-negative bacteria: E. coli BL21; conditions: E. coli BL21, 5×10^5 CFU/mL
Method in brief: (§1)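 Antibacterial activity of purified human EGF domain proteins: two-fold concentration series, triplicate wells, LB broth, 5×10^5 CFU/mL bacteria, 37° C shaking incubation. The lowest concentration without growth defines the MIC.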

Pseudomonas aeruginosa = experiment: MIC against Gram-negative bacteria: Pseudomonas aeruginosa; conditions: 5×10^5 CFU/mL
Method in brief: as §1

Klebsiella pneumonia = experiment: MIC against Gram-negative bacteria: Klebsiella pneumonia; conditions: 5×10^5 CFU/mL
Method in brief: as §1

Enterobacter cloacae = experiment: MIC against Gram-negative bacteria: Enterobacter cloacae; conditions: 5×10^5 CFU/mL
Method in brief: as §1

Aeromonas hydrophila = experiment: MIC against Gram-negative bacteria: Aeromonas hydrophila; conditions: 5×10^5 CFU/mL
Method in brief: as §1

Citrobacter diversus = experiment: MIC against Gram-negative bacteria: Citrobacter diversus; conditions: 5×10^5 CFU/mL
Method in brief: as §1

Moraxella catarrhalis = experiment: MIC against Gram-negative bacteria: Moraxella catarrhalis; conditions: 5×10^5 CFU/mL
Method in brief: as §1

Proteus mirabilis = experiment: MIC against Gram-negative bacteria: Proteus mirabilis; conditions: 5×10^5 CFU/mL
Method in brief: as §1

Proteus vulgaris = experiment: MIC against Gram-negative bacteria: Proteus vulgaris; conditions: 5×10^5 CFU/mL
Method in brief: as §1

Serratia marcescens = experiment: MIC against Gram-negative bacteria: Serratia marcescens; conditions: 5×10^5 CFU/mL
Method in brief: as §1

[1] = Pseudomonas aeruginosa, 96-well plate, 37° C., 10 h
[2] = Klebsiella pneumonia, 96-well plate, 37° C., 10 h
[3] = Enterobacter cloacae, 96-well plate, 37° C., 10 h
[4] = Aeromonas hydrophila, 96-well plate, 37° C., 10 h
[5] = Citrobacter diversus, 96-well plate, 37° C., 10 h
[6] = Moraxella catarrhalis, 96-well plate, 37° C., 10 h
[7] = Proteus mirabilis, 96-well plate, 37° C., 10 h
[8] = Proteus vulgaris, 96-well plate, 37° C., 10 h
[9] = Serratia marcescens, 96-well plate, 37° C., 10 h
[10] = P. aeruginosa, 10 h cultivation at 37° C.
[11] = K. pneumonia, 10 h cultivation at 37° C.
[12] = E. cloacae, 10 h cultivation at 37° C.
[13] = A. hydrophila, 10 h cultivation at 37° C.
[14] = C. diversus, 10 h cultivation at 37° C.
[15] = M. catarrhalis, 10 h cultivation at 37° C.
[16] = P. mirabilis, 10 h cultivation at 37° C.
[17] = P. vulgaris, 10 h cultivation at 37° C.
[18] = S. marcescens, 10 h cultivation at 37° C.

Substance	MIC (E. coli DH5α)	MIC (μg/mL) E. coli BL21 (E. coli BL21; 96-well plate, 37° C., 10 h)	MIC (μg/mL) P. aeruginosa (Pseudomonas aeruginosa; [1])	MIC (μg/mL) K. pneumonia (Klebsiella pneumonia; [2])	MIC (μg/mL) E. cloacae (Enterobacter cloacae; [3])	MIC (μg/mL) A. hydrophila (Aeromonas hydrophila; [4])	MIC (μg/mL) C. diversus (Citrobacter diversus; [5])	MIC (μg/mL) M. catarrhalis (Moraxella catarrhalis; [6])	MIC (μg/mL) P. mirabilis (Proteus mirabilis; [7])	MIC (μg/mL) P. vulgaris (Proteus vulgaris; [8])	MIC (μg/mL) S. marcescens (Serratia marcescens; [9])	also measured
PRT20 (QKNLCNNTGDPEMCPENGSCVPDGPGLLQCVCADGFHGYKCM; listed as Homo sapiens)	12.5 µg/mL	25 µg/mL	50 µg/mL	25 µg/mL	12.5 µg/mL	50 µg/mL	25 µg/mL	12.5 µg/mL	50 µg/mL	25 µg/mL	12.5 µg/mL	–
PRT142 (PCPGRYLRAGKCAELPNCLDDLGGFACECATGFELGKDGRSCV; listed as Homo sapiens)	12.5 µg/mL	12.5 µg/mL	25 µg/mL	12.5 µg/mL	25 µg/mL	25 µg/mL	12.5 µg/mL	25 µg/mL	12.5 µg/mL	25 µg/mL	12.5 µg/mL	–
PRT248 (DVDECSARRGGCPQRCVNTAGSYWCQCWEGHSLSADGTLCV; listed as Homo sapiens)	12.5 µg/mL	–	–	–	–	–	–	–	–	–	–	MIC (μg/mL) E. coli BL21 (E. coli BL21; 10 h cultivation at 37° C.): 25 µg/mL; MIC (μg/mL) P. aeruginosa (Pseudomonas aeruginosa; [10]): 12.5 µg/mL; MIC (μg/mL) K. pneumonia (Klebsiella pneumonia; [11]): 25 µg/mL; MIC (μg/mL) E. cloacae (Enterobacter cloacae; [12]): 12.5 µg/mL; MIC (μg/mL) A. hydrophila (Aeromonas hydrophila; [13]): 25 µg/mL; MIC (μg/mL) C. diversus (Citrobacter diversus; [14]): 12.5 µg/mL; MIC (μg/mL) M. catarrhalis (Moraxella catarrhalis; [15]): 25 µg/mL; MIC (μg/mL) P. mirabilis (Proteus mirabilis; [16]): 12.5 µg/mL; MIC (μg/mL) P. vulgaris (Proteus vulgaris; [17]): 25 µg/mL; MIC (μg/mL) S. marcescens (Serratia marcescens; [18]): 12.5 µg/mL
PRT317 (VTDYCQLVRYLCQNGRCIPTPGSCRCECNKGFQLDLRGECI; listed as Homo sapiens)	12.5 µg/mL	–	–	–	–	–	–	–	–	–	–	MIC (E. coli BL21; 10 h cultivation at 37° C.): 50 µg/mL; MIC (Pseudomonas aeruginosa; [10]): 12.5 µg/mL; MIC (Klebsiella pneumonia; [11]): 50 µg/mL; MIC (Enterobacter cloacae; [12]): 12.5 µg/mL; MIC (Aeromonas hydrophila; [13]): 25 µg/mL; MIC (Citrobacter diversus; [14]): 12.5 µg/mL; MIC (Moraxella catarrhalis; [15]): 25 µg/mL; MIC (Proteus mirabilis; [16]): 12.5 µg/mL; MIC (Proteus vulgaris; [17]): 12.5 µg/mL; MIC (Serratia marcescens; [18]): 12.5 µg/mL
PRT111 (DLDECASRSKSGEEDPQPQCQHLCHNYVGGYFCSCRPGYELQEDTHSCQ; listed as Homo sapiens)	12.5 µg/mL	12.5 µg/mL	12.5 µg/mL	12.5 µg/mL	50 µg/mL	25 µg/mL	12.5 µg/mL	25 µg/mL	50 µg/mL	25 µg/mL	12.5 µg/mL	–
PRT1376 (ATRMCPADCRGRGRCVQGVCLCHVGYGGEDCG; listed as Homo sapiens)	50 µg/mL	–	–	–	–	–	–	–	–	–	–	MIC against E. coli BL21 (E. coli BL21; 10 h cultivation at 37° C.): 12.5 µg/mL; MIC against P. aeruginosa (Pseudomonas aeruginosa; Pseudomonas aeruginosa, 10 h cultivation at 37° C.): 50 µg/mL; MIC against K. pneumonia (Klebsiella pneumonia; Klebsiella pneumonia, 10 h cultivation at 37° C.): 12.5 µg/mL; MIC against E. cloacae (Enterobacter cloacae; Enterobacter cloacae, 10 h cultivation at 37° C.): 50 µg/mL; MIC against A. hydrophila (Aeromonas hydrophila; Aeromonas hydrophila, 10 h cultivation at 37° C.): 12.5 µg/mL; MIC against C. diversus (Citrobacter diversus; Citrobacter diversus, 10 h cultivation at 37° C.): 50 µg/mL; MIC against M. catarrhalis (Moraxella catarrhalis; Moraxella catarrhalis, 10 h cultivation at 37° C.): 12.5 µg/mL; MIC against P. mirabilis (Proteus mirabilis; Proteus mirabilis, 10 h cultivation at 37° C.): 50 µg/mL; MIC against P. vulgaris (Proteus vulgaris; Proteus vulgaris, 10 h cultivation at 37° C.): 12.5 µg/mL; MIC against S. marcescens (Serratia marcescens; Serratia marcescens, 10 h cultivation at 37° C.): 25 µg/mL
